Target: VMAT2 (Homo sapiens, UniProt Q05940)
Experiment: VMAT2 target occupancy of single oral doses of NBI-750142 in healthy adult male subjects, [^18F]AV-133 PET
Assay type: in vivo
Parameters: from tissue; host or cells: brain (caudate, putamen, midbrain) of living healthy adult male subjects
Settings: for NBI-750142 T1 Occ / [^18F]AV-133 BPND T1: T1 ([…] post dose); for NBI-750142 T2 Occ / [^18F]AV-133 BPND T2: T2 (18 h post dose)
Protocol: This study was conducted to evaluate the brain penetration and target engagement of VMAT2 after single oral doses of NBI-750142 in healthy subjects. This PET study assessed the engagement of NBI-750142 with VMAT2 in vivo at two time-points after dosing. A sequential-cohort design allowed for the safety, target-occupancy, and available pharmacokinetic (PK) data from each prior cohort to be evaluated before selection of the dose level for the next cohort. A range of NBI-750142 doses (max. 200 mg) were studied to explore the relationship between NBI-750142 plasma concentrations and engagement of VMAT2 in selected brain regions.
This was a Phase 1 single-center, open-label, single-dose, target occupancy study of NBI-750142 in up to 12 healthy male subjects using [^18F]AV-133 PET imaging. […] A total of 12 subjects completed the study. Subjects enrolled in the study were required to report to the clinical research site for 4 separate occasions, detailed below.
Two subjects were initially enrolled in each dose cohort. Each subject received one brain structural magnetic resonance imaging (MRI) scan during screening and up to 3 [^18F]AV-133 PET scans (1 baseline and up to 2 follow-up scans after receiving a single dose of NBI-750142). Subjects enrolled in the first cohort received a single dose of 100 mg of NBI-750142 orally on Day 1. PET scans occurred on Day 1 at approximately 1.5 hours post NBI-750142 dose and on Day 2 at approximately 18 hours post NBI-750142 dose. Subjects were then discharged from the study center after all Day 3 procedures and assessments were completed.
Subjects were administered a single dose of [^18F]AV-133 intravenously over 3 minutes using an infusion pump (approximately 3.33 mL per minute) through a venous catheter followed by a 10 mL saline flush. Dynamic PET imaging of the brain was acquired over 120 min following radiotracer injection on a Siemens Biograph 6 PET/CT camera according to the following protocol: • CT scan of the head • [^18F]AV-133 injection (T=0 min) • Emission scan: 6×30 sec, 4×1 min, 4×2 min, 21×5 min (0-120 min)
Reconstructed PET imaging data volumes were transferred to the image processing PMOD software package (PMOD Technologies, Zurich, Switzerland) where the images were motion and decay corrected, realigned onto the subject MRI and subsequently normalized into the standard MNI (Montreal Neurological Institute) space where volumes of interest (VOIs) were defined from a template (see e.g., Hammers et al, Adult brain maximum probability map (“Hammersmith atlas”; n30r83) in MNI space. 2008). The subject MRI was segmented into grey matter, white matter, and CSF maps. Average activity concentration (kBq/cc) within each VOI, constrained to grey matter voxels for cortical regions, were determined and time activity curves (TACs) were generated. TACs were extracted from the following VOIs: caudate and putamen (striatum), midbrain, cerebellar and occipital cortices. TACs and were expressed in standard uptake value (SUV) units (g/mL) by normalizing with the weight of the subject and the injected dose. The occipital cortex was used as a reference region to normalize activity in target regions to generate SUVr images. For visualization, standard uptake value ratio (SUVr) images were computed between 60-120 min. Non-displaceable binding potential (BPND), the primary outcome measure, was estimated with noninvasive Logan graphical analysis (NI-LGA, t*=20 min) in caudate, putamen and midbrain using the occipital cortex as the reference region. Percent measured occupancy (OM) of NBI-750142 (drug) by region was computed according to the Equation 3-1 at each of the post-dose timepoints, T1 (1.5 h post dose) and T2 (18 h post dose).
Post-hoc exploratory analysis applied an Upregulation model (Equation 3-3), in order to account for the apparent ‘negative occupancy’ values observed at T2 (BPND values at T2 were unexpectedly higher than corresponding BPND values at baseline). […]

[1] = Cohort 1, 100 mg, Subject 1, Caudate
[2] = Cohort 1, 100 mg, Subject 1, Midbrain
[3] = Cohort 1, 100 mg, Subject 1, Putamen
[4] = Cohort 1, 100 mg, Subject 2, Caudate
[5] = Cohort 1, 100 mg, Subject 2, Midbrain
[6] = Cohort 1, 100 mg, Subject 2, Putamen
[7] = Cohort 2, 200 mg, Subject 1, Caudate
[8] = Cohort 2, 200 mg, Subject 1, Midbrain
[9] = Cohort 2, 200 mg, Subject 1, Putamen
[10] = Cohort 2, 200 mg, Subject 2, Caudate
[11] = Cohort 2, 200 mg, Subject 2, Midbrain
[12] = Cohort 2, 200 mg, Subject 2, Putamen
[13] = Cohort 3, 60 mg, Subject 1, Caudate
[14] = Cohort 3, 60 mg, Subject 1, Midbrain
[15] = Cohort 3, 60 mg, Subject 1, Putamen
[16] = Cohort 3, 60 mg, Subject 2, Caudate
[17] = Cohort 3, 60 mg, Subject 2, Midbrain
[18] = Cohort 3, 60 mg, Subject 2, Putamen
[19] = Cohort 4, 60 mg, Subject 1, Caudate

Chain of VMAT2 (Q05940 whole entry): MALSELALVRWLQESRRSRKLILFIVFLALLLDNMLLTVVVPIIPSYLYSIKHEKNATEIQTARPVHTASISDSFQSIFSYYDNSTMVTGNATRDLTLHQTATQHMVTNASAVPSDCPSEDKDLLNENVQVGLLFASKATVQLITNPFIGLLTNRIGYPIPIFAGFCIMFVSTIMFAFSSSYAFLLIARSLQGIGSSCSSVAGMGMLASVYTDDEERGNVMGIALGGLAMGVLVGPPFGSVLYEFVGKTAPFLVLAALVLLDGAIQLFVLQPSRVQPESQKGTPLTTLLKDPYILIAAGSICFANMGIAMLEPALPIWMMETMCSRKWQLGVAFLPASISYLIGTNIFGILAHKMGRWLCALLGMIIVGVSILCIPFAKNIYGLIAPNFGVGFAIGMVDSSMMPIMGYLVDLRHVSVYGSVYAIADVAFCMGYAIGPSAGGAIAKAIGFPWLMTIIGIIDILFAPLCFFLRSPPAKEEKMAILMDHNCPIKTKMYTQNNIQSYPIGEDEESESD

COc1cc2c(cc1OC)[C@H]1CN(C)[C@H](CC(C)(C)C)CN1CC2 [NBI-750142]
[^18F]AV-133 striatal uptake at T1 vs baseline (10 mg, cohorts 5A and 5B): did not show reduction in uptake
[^18F]AV-133 striatal uptake at T1 vs baseline (60 mg, cohorts 3 and 4): showed variability between subjects
[^18F]AV-133 striatal uptake at T1 vs baseline (100 mg and 200 mg doses, both subjects): markedly reduced uptake
NBI-750142 T1 Occ [1]: 72%
[^18F]AV-133 BPND T1 [1]: 0.34
NBI-750142 T2 Occ [1]: 3%
[^18F]AV-133 BPND T2 [1]: 1.15
NBI-750142 T1 Occ [2]: 59%
[^18F]AV-133 BPND T1 [2]: 0.15
NBI-750142 T2 Occ [2]: 5%
[^18F]AV-133 BPND T2 [2]: 0.34
NBI-750142 T1 Occ [3]: 54%
[^18F]AV-133 BPND T1 [3]: 0.95
NBI-750142 T2 Occ [3]: −2%
[^18F]AV-133 BPND T2 [3]: 2.11
NBI-750142 T1 Occ [4]: 80%
[^18F]AV-133 BPND T1 [4]: 0.38
NBI-750142 T2 Occ [4]: 15%
[^18F]AV-133 BPND T2 [4]: 1.60
NBI-750142 T1 Occ [5]: 60%
[^18F]AV-133 BPND T1 [5]: 0.20
NBI-750142 T2 Occ [5]: 30%
[^18F]AV-133 BPND T2 [5]: 0.36
NBI-750142 T1 Occ [6]: 73%
[^18F]AV-133 BPND T1 [6]: 0.66
NBI-750142 T2 Occ [6]: 13%
[^18F]AV-133 BPND T2 [6]: 2.09
Occupancy at T2 in striatum (Cohort 1 at 100 mg, subject 1, 18 h post dose): 1%
Occupancy at T2 in striatum (Cohort 1 at 100 mg, subject 2, 18 h post dose): 14%
NBI-750142 T1 Occ [7]: 75%
[^18F]AV-133 BPND T1 [7]: 0.40
NBI-750142 T2 Occ [7]: −30%
[^18F]AV-133 BPND T2 [7]: 2.06
NBI-750142 T1 Occ [8]: 63%
[^18F]AV-133 BPND T1 [8]: 0.14
NBI-750142 T2 Occ [8]: −33%
[^18F]AV-133 BPND T2 [8]: 0.49
NBI-750142 T1 Occ [9]: 69%
[^18F]AV-133 BPND T1 [9]: 0.74
NBI-750142 T2 Occ [9]: −26%
[^18F]AV-133 BPND T2 [9]: 3.00
NBI-750142 T1 Occ [10]: 72%
[^18F]AV-133 BPND T1 [10]: 0.51
NBI-750142 T2 Occ [10]: −7%
[^18F]AV-133 BPND T2 [10]: 1.91
NBI-750142 T1 Occ [11]: 60%
[^18F]AV-133 BPND T1 [11]: 0.23
NBI-750142 T2 Occ [11]: 7%
[^18F]AV-133 BPND T2 [11]: 0.53
NBI-750142 T1 Occ [12]: 67%
[^18F]AV-133 BPND T1 [12]: 0.88
NBI-750142 T2 Occ [12]: −5%
[^18F]AV-133 BPND T2 [12]: 2.81
Occupancy at T2 in striatum (Cohort 2 at 200 mg, subject 1, 18 h post dose): −28%
Occupancy at T2 in striatum (Cohort 2 at 200 mg, subject 2, 18 h post dose): −6%
NBI-750142 T1 Occ [13]: 37%
[^18F]AV-133 BPND T1 [13]: 1.04
NBI-750142 T2 Occ [13]: −15%
[^18F]AV-133 BPND T2 [13]: 1.93
NBI-750142 T1 Occ [14]: 47%
[^18F]AV-133 BPND T1 [14]: 0.20
NBI-750142 T2 Occ [14]: −5%
[^18F]AV-133 BPND T2 [14]: 0.39
NBI-750142 T1 Occ [15]: 34%
[^18F]AV-133 BPND T1 [15]: 1.31
NBI-750142 T2 Occ [15]: −12%
[^18F]AV-133 BPND T2 [15]: 2.22
NBI-750142 T1 Occ [16]: 6%
[^18F]AV-133 BPND T1 [16]: 1.62
NBI-750142 T2 Occ [16]: −20%
[^18F]AV-133 BPND T2 [16]: 2.07
NBI-750142 T1 Occ [17]: 16%
[^18F]AV-133 BPND T1 [17]: 0.44
NBI-750142 T2 Occ [17]: −22%
[^18F]AV-133 BPND T2 [17]: 0.64
NBI-750142 T1 Occ [18]: 3%
[^18F]AV-133 BPND T1 [18]: 2.14
NBI-750142 T2 Occ [18]: −22%
[^18F]AV-133 BPND T2 [18]: 2.70
Occupancy at T2 in striatum (Cohort 3 at 60 mg, subject 1, 18 h post dose): −14%
Occupancy at T2 in striatum (Cohort 3 at 60 mg, subject 2, 18 h post dose): −21%
NBI-750142 T1 Occ [19]: 50%
[^18F]AV-133 BPND T1 [19]: 0.78
NBI-750142 T2 Occ [19]: −8%
